Data from patent US11541055B2, “Inhibitors of human immunodeficiency virus replication” (ViiV Healthcare UK (No. 5) LIMITED, priority 2018, dated 2023).

Assays:
[1] = test system: recombinant NL4-3 virus (Renilla luciferase) in MT-2 cells; test: HIV cell culture assay (antiviral activity, luciferase readout); assay type: cell-based; conditions: Renilla, NL43
Summary of the method: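 Antiviral EC50 was derived via the median effect equation from luciferase signal. The signal came from MT-2 cultures infected for 4–5 days with a nef-deleted, Renilla luciferase-expressing NL4-3 reporter virus (made in 293T cells) in the presence of compound dilutions.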

[2] = Compound cytotoxicity, XTT-based colorimetric assay; assay type: cell-based; conditions: human; uninfected MT2 cells, day 4, XTT
Summary of the method: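 Run under the antiviral-assay protocol but without virus. Viability was read on day 4 and CC50 values were derived from the readout.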

SMILES	EC50 [1] [nM]	CC50 at 4 days [2] [nM]
Cc1nc(C)c(-c2ccc3c(=O)n(-c4ccc(Cl)c5c(NS(C)(=O)=O)nn(C)c45)c([C@H](Cc4cc(F)cc(F)c4)NC(=O)Cn4nc(C(F)F)c5c4C(F)(F)[C@@H]4C[C@H]54)nc3c2)s1 (atropisomer, axis not shown; (P)) [Example 6, N—((S)-1-((3P)-3-(4-chloro-1-methyl-3-(methylsulfonamido)-1H-indazol-7-yl)-7-(2,4-dimethylthiazol-5-yl)-4-oxo-3,4-dihydroquinazolin-2-yl)-2-(3,5-difluorophenyl)ethyl)-2-((3bS,4aR)-3-(difluoromethyl)-5,5-difluoro-3b,4,4a,5-tetrahydro-1H-cyclopropa[3,4]cyclopenta[1,2-c]pyrazol-1-yl)acetamide]	0.12	> 500
COc1cc(C(F)(F)F)nc(-c2ccc3c(=O)n(-c4ccc(Cl)c5c(NS(C)(=O)=O)nn(C)c45)c([C@H](Cc4cc(F)cc(F)c4)NC(=O)Cn4nc(C(F)F)c5c4C(F)(F)[C@@H]4C[C@H]54)nc3c2)n1 (atropisomer, axis not shown; (P)) [Example 54, N—((S)-1-((3P)-3-(4-chloro-1-methyl-3-(methylsulfonamido)-1H-indazol-7-yl)-7-(4-methoxy-6-(trifluoromethyl)pyrimidin-2-yl)-4-oxo-3,4-dihydroquinazolin-2-yl)-2-(3,5-difluorophenyl)ethyl)-2-((3bS,4aR)-3-(difluoromethyl)-5,5-difluoro-3b,4,4a,5-tetrahydro-1H-cyclopropa[3,4]cyclopenta[1,2-c]pyrazol-1-yl)acetamide]	0.31	> 500
COc1cnc(-c2ccc3c(=O)n(-c4ccc(Cl)c5c(NS(C)(=O)=O)nn(C)c45)c([C@H](Cc4cc(F)cc(F)c4)NC(=O)Cn4nc(C(F)F)c5c4C(F)(F)[C@@H]4C[C@H]54)nc3c2)nc1 (atropisomer, axis not shown; (P)) [Example 34, N—((S)-1-((3P)-3-(4-chloro-1-methyl-3-(methylsulfonamido)-1H-indazol-7-yl)-7-(5-methoxypyrimidin-2-yl)-4-oxo-3,4-dihydroquinazolin-2-yl)-2-(3,5-difluorophenyl)ethyl)-2-((3bS,4aR)-3-(difluoromethyl)-5,5-difluoro-3b,4,4a,5-tetrahydro-1H-cyclopropa[3,4]cyclopenta[1,2-c]pyrazol-1-yl)acetamide]	0.058	> 500
COc1nccnc1-c1ccc2c(=O)n(-c3ccc(Cl)c4c(NS(C)(=O)=O)nn(C)c34)c([C@H](Cc3cc(F)cc(F)c3)NC(=O)Cn3nc(C(F)F)c4c3C(F)(F)[C@@H]3C[C@H]43)nc2c1 (atropisomer, axis not shown; (P)) [Example 15, N—((S)-1-((3P)-3-(4-chloro-1-methyl-3-(methylsulfonamido)-1H-indazol-7-yl)-7-(3-methoxypyrazin-2-yl)-4-oxo-3,4-dihydroquinazolin-2-yl)-2-(3,5-difluorophenyl)ethyl)-2-((3bS,4aR)-3-(difluoromethyl)-5,5-difluoro-3b,4,4a,5-tetrahydro-1H-cyclopropa[3,4]cyclopenta[1,2-c]pyrazol-1-yl)acetamide]	0.15	> 500
Cc1ncc(-c2ccc3c(=O)n(-c4ccc(Cl)c5c(NS(=O)(=O)C6CC6)nn(CC(F)F)c45)c([C@H](Cc4cc(F)cc(F)c4)NC(=O)Cn4nc(C(F)F)c5c4C(F)(F)[C@@H]4C[C@H]54)nc3c2)s1 (atropisomer, axis not shown) [Example 97, N-[(1S)-1-{3-[4-chloro-3-cyclopropanesulfonamido-1-(2,2-difluoroethyl)-1H-indazol-7-yl]-7-(2-methyl-1,3-thiazol-5-yl)-4-oxo-3,4-dihydroquinazolin-2-yl}-2-(3,5-difluorophenyl)ethyl]-2-[(2S,4R)-9-(difluoromethyl)-5,5-difluoro-7,8-diazatricyclo[4.3.0.0^2,^4]nona-1(6),8-dien-7-yl]acetamide]	0.22	> 500
Cc1ccc(-n2c([C@H](Cc3cc(F)cc(F)c3)NC(=O)Cn3nc(C(F)F)c4c3C(F)(F)[C@@H]3C[C@H]43)nc3cc(-c4cccnn4)ccc3c2=O)c2c1c(NS(C)(=O)=O)nn2C (atropisomer, axis not shown) [Example 141, 2-[(2S,4R)-9-(difluoromethyl)-5,5-difluoro-7,8-diazatricyclo[4.3.0.0^2,^4]nona-1(6),8-dien-7-yl]-N-[(1S)-2-(3,5-difluorophenyl)-1-[3-(3-methanesulfonamido-1,4-dimethyl-1H-indazol-7-yl)-4-oxo-7-(pyridazin-3-yl)-3,4-dihydroquinazolin-2-yl]ethyl]acetamide]	0.13	> 500
Cc1ncc(F)c(-c2ccc3c(=O)n(-c4ccc(Cl)c5c(NS(C)(=O)=O)nn(C)c45)c([C@H](Cc4cc(F)cc(F)c4)NC(=O)Cn4nc(C(F)F)c5c4C(F)(F)[C@@H]4C[C@H]54)nc3c2)n1 (atropisomer, axis not shown; (P)) [Example 64, N—((S)-1-((3P)-3-(4-chloro-1-methyl-3-(methylsulfonamido)-1H-indazol-7-yl)-7-(5-fluoro-2-methylpyrimidin-4-yl)-4-oxo-3,4-dihydroquinazolin-2-yl)-2-(3,5-difluorophenyl)ethyl)-2-((3bS,4aR)-3-(difluoromethyl)-5,5-difluoro-3b,4,4a,5-tetrahydro-1H-cyclopropa[3,4]cyclopenta[1,2-c]pyrazol-1-yl)acetamide]	0.093	> 500
Cc1nnc(-c2ccc3c(=O)n(-c4ccc(Cl)c5c(NS(C)(=O)=O)nn(C)c45)c([C@H](Cc4cc(F)cc(F)c4)NC(=O)Cn4nc(C(F)F)c5c4C(F)(F)[C@@H]4C[C@H]54)nc3c2)nc1C (atropisomer, axis not shown; (P)) [Example 55, N—((S)-1-((3P)-3-(4-chloro-1-methyl-3-(methylsulfonamido)-1H-indazol-7-yl)-7-(5,6-dimethyl-1,2,4-triazin-3-yl)-4-oxo-3,4-dihydroquinazolin-2-yl)-2-(3,5-difluorophenyl)ethyl)-2-((3bS,4aR)-3-(difluoromethyl)-5,5-difluoro-3b,4,4a,5-tetrahydro-1H-cyclopropa[3,4]cyclopenta[1,2-c]pyrazol-1-yl)acetamide]	0.032	> 500
Cn1nc(NS(C)(=O)=O)c2c(Cl)ccc(-n3c([C@H](Cc4cc(F)cc(F)c4)NC(=O)Cn4nc(C(F)F)c5c4C(F)(F)[C@@H]4C[C@H]54)nc4cc(-c5cccc(C(F)F)c5)ccc4c3=O)c21 (atropisomer, axis not shown) [Example 120]	0.38	> 500
Cc1nc(C)c(C)c(-c2ccc3c(=O)n(-c4ccc(Cl)c5c(NS(C)(=O)=O)nn(CC(F)(F)F)c45)c([C@H](Cc4cc(F)cc(F)c4)NC(=O)Cn4nc(C(F)F)c5c4C(F)(F)[C@@H]4C[C@H]54)nc3c2)n1 (atropisomer, axis not shown) [Example 109, N-[(1S)-1-{3-[4-chloro-3-methanesulfonamido-1-(2,2,2-trifluoroethyl)-1H-indazol-7-yl]-4-oxo-7-(2,5,6-trimethylpyrimidin-4-yl)-3,4-dihydroquinazolin-2-yl}-2-(3,5-difluorophenyl)ethyl]-2-[(2S,4R)-9-(difluoromethyl)-5,5-difluoro-7,8-diazatricyclo[4.3.0.0^2,^4]nona-1(6),8-dien-7-yl]acetamide]	0.11	> 500
